Data from patent publication US11529318B2, “Devices and methods for local delivery of tacrolimus” (UNIVERSITY OF PITTSBURGH—OF THE COMMONWEALTH SYSTEM OF …, priority 2017, dated 2022).

Key:
[1] = Tacrolimus concentration in blood, optic nerve ischemia model (Example 1); format: in vivo, Sprague-Dawley rats; conditions: Sprague-Dawley, rat, whole blood, ip, systemic administration (i.p. 2.2 mg/kg/day)
Procedure: Optic nerve ischemia and PEUU-Tac matrix application. Animals were anesthetized by intraperitoneal injection of 45:10 mg/kg ketamine/xylazine cocktail. Once anaesthetized, the optic nerve was exposed by making a small incision and then creating a nearly bloodless plane through the conjunctiva by blunt dissection with #5 forceps. The surrounding muscle and connective tissue around the optic nerve were then gently separated until the optic nerve was exposed. Using a Yasagril aneurysm clip, the right optic nerve was clamped ˜2 mm behind the globe for 10 seconds (Sarikcioglu, Demir et al. 2007). After removing the clip, ophthalmic artery integrity was confirmed by visualization. For some animals, the optic nerve sheath was fenestrated at the injury site by making an 1-2 mm incision. For animals receiving PEUU-Tac, a 1×5 mm section cut from a 10 mg PEUU-Tac matrix was sutured around the injury site and then secured by suturing to the outer sheath. After each optic nerve procedure, the conjunctiva was sutured and antibiotic ointment (Gentamicin, Bausch & Lomb, Tampa, Fla.) was applied to the eye. […]
Quantification of tacrolimus in blood by HPLC-tandem mass spectrometry. […] Monitored parent to product mass transitions for tacrolimus and ascomycin were 821.63→768.33 and 809→756 m/z, respectively.

GAP-43 expression = assay: GAP-43 immunohistochemistry of optic nerve after optic nerve crush; format: in vivo, Sprague-Dawley rats; conditions: 14 days after optic nerve crush, systemic tacrolimus treatment
[2] = reference range; cited from earlier work
[3] = test system: glial fibrillary acidic protein (GFAP) expression; assay: GFAP immunohistochemistry of optic nerve after optic nerve crush; format: in vivo, Sprague-Dawley rats; conditions: 14 days after optic nerve crush, systemic tacrolimus treatment, compared to uncrushed controls
Procedure: Optic nerve ischemia and PEUU-Tac matrix application. Animals were anesthetized by intraperitoneal injection of 45:10 mg/kg ketamine/xylazine cocktail. Once anaesthetized, the optic nerve was exposed by making a small incision and then creating a nearly bloodless plane through the conjunctiva by blunt dissection with #5 forceps. The surrounding muscle and connective tissue around the optic nerve were then gently separated until the optic nerve was exposed. Using a Yasagril aneurysm clip, the right optic nerve was clamped ˜2 mm behind the globe for 10 seconds (Sarikcioglu, Demir et al. 2007). After removing the clip, ophthalmic artery integrity was confirmed by visualization. For some animals, the optic nerve sheath was fenestrated at the injury site by making an 1-2 mm incision. For animals receiving PEUU-Tac, a 1×5 mm section cut from a 10 mg PEUU-Tac matrix was sutured around the injury site and then secured by suturing to the outer sheath. After each optic nerve procedure, the conjunctiva was sutured and antibiotic ointment (Gentamicin, Bausch & Lomb, Tampa, Fla.) was applied to the eye. In total, twenty-eight animals received acute optic nerve ischemia to the right optic nerve with or without a PEUU-Tac wrap.
Immunohistochemistry. […]

[4] = Tacrolimus concentration in whole blood (Example 3); format: in vivo, Lewis rats; conditions: Lewis, rat, intraperitoneal, 1 mg/kg, read-out: trough tacrolimus blood levels
Procedure: Quantification of Tacrolimus by LC-Tandem Mass Spectrometry (LC-MS/MS). Fifty microliters of blood containing an unknown concentration of Tacrolimus was added to a conical centrifugation tube, followed by 200 μL of zinc sulfate heptahydrate (ZnSO4.7H2O) to precipitate plasma proteins. Five hundred microliters of an acetonitrile based solution containing a deuterated internal standard (ascomycin) at a concentration of 15 ng/ml was then added, and the mixture was vortexed at 3000 rpm for 2 minutes and centrifugated at 13,000 rpm for 3 minutes and the supernatants collected in LCMS vials for analysis.
Analysis was performed using a fully validated, reverse phased method for the detection of TAC in blood on a Waters micromass Quattro micro API mass spectrometer that is operated in positive electrospray ionization mode, utilizing multiple reaction monitoring, with an injection volume of 20 μL. The Waters 2795 Alliance Separations Module was equipped with a nova-pack® C18 column, 2.1×10 mm cartridge (Waters #186003523) heated to 55° C. Analytes were effectively separated using a gradient elution consisting of an aqueous mobile phase (95% H2O/5% MeOH) and an organic mobile phase (100% MeOH), at a flow rate of 0.6 mL per minute. Mobile phases also contained 0.1% formic acid (CH2O2) and 2 mM ammonium acetate.

## C=CC[C@@H]1/C=C(\C)C[C@H](C)C[C@H](OC)[C@H]2O[C@@](O)(C(=O)C(=O)N3CCCC[C@H]3C(=O)O[C@H](/C(C)=C/[C@@H]3CC[C@@H](O)[C@H](OC)C3)[C@H](C)[C@@H](O)CC1=O)[C@H](C)C[C@@H]2OC [tacrolimus]
[1]; 24 hour
  concentration at 24 h: 7.05 ± 1.09 ng/mL
[1]; 14 days
  concentration at 14 days: 27.7 ± 3.53 ng/mL
GAP-43 expression
  GAP-43 expression in optic nerve: no significant GAP-43 expression
[2]
  therapeutic trough levels (blood): 5 to 10 ng/mL
[3]
  GFAP expression in optic nerve: did not cause significant GFAP expression
[4]; 24 hours post systemic injection
  concentration at 24 h: 18.8 ± 14.8 ng/mL
[4]; 14 days, systemically treated animals
  concentration at 14 days: 14 ± 10.6 ng/mL
